Read-outs that look alike come from different tables or passages of the source.
What was measured:
[1] = mouse, cited from earlier work
[2] = cited from earlier work
[3] = in vivo, iv
[4] = chronic toxicity in rats, for 12 months; cited from earlier work
[5] = system: Glutathione (GSH); conditions: cited from earlier work
[6] = human, intravenous route; cited from earlier work
[7] = Chronic toxicity in rats (NOEL); type: in vivo; conditions: oral route, 60 kg
[8] = rats, intraperitoneal route; cited from earlier work
[9] = 11,195 cases of suspected acetaminophen overdose reviewed; cited from earlier work

CC(=O)N[C@@H](CS)C(=O)O [NAC, N-acetylcysteine]
Toxic Dose Low (TDLO) ([1]; intraperitoneal route): 408 to 450 mg/kg | Toxic Dose Low (TDLO) ([1]; oral route): 300 mg/kg | plasma half-life ([2]; after oral administration): 6.3 h | time at which maximum plasma concentration is reached ([2]; after oral administration): 2 to 3 h | NAC in plasma or bronchoalveolar lavage fluid ([2]; following oral administration for 4-14 days): cannot be detected | bioavailability ([2]; oral, unchanged molecule): about 10% | 1200 mg dose (20 mg/kg) referred to TDLO in human [3]: about 10 times less | no observed effect level (NOEL) dose [4]: about 1000 mg/kg/day | cysteine and GSH levels in plasma and lung ([5]; NAC 600 mg once daily): increased transiently | plasma concentration of Glutathione (GSH) ([5]; patients with COPD, 600 mg once daily): unchanged | plasma GSH levels ([5]; patients with COPD, 600 mg three times daily): increased | Toxic Dose Low (TDLO) [6]: 150 to 200 mg/kg | 1200 mg dose (20 mg/kg) referred to NOEL in rats [7]: 50 times less | Toxic Dose Low (TDLO) [8]: 150 to 200 mg/kg | effectiveness of 72-hour oral regimen [9]: as effective as the 24-hour regimen

From patent EP2574333B1, “N-acetylcysteine effervescent tablet and its therapeutical applications” (Friulchem SpA, priority 2011, dated 2013)
